Active and inactive are the calls of the source. The calls are words filed in the database; no cut-off is given here.
Legend:
[1] = tested on: Mus musculus; assay: Compound was tested intraperitoneally against P388 acute lymphocytic leukemia in mice; NA means inactive; format: functional, organism-based
[2] = tested on: Mus musculus; assay: Compound was tested intraperitoneally against P388 acute lymphocytic leukemia in mice at a dose 100,50,25,12.5,6.25,3.72,1.56 mg/kg; format: functional
[3] = tested on: Mus musculus; assay: Compound was tested intraperitoneally against P388 acute lymphocytic leukemia in mice at a dose 0.75 mg/kg; format: functional; conditions: route intraperitoneal

Row | Structure (SMILES) | T/C [1] | T/C [2] | other results
1 | COc1ccc(OC)c2c1CN(C(C)=O)CC2O (stereo not given) | inactive | – | –
2 | CC(=O)N1Cc2c(O)c3c(c(O)c2[C@H](OC2C[C@H](NC(=O)C(F)(F)F)[C@H](O)[C@H](C)O2)C1)C(=O)c1ccccc1C3=O (stereo not given in full) | – | 105 | –
3 | COc1ccc(OC)c(CNCC(OC)OC)c1 | inactive | – | –
4 | CC(=O)N1Cc2c(O)c3c(c(O)c2[C@@H](OC2C[C@H](NC(=O)C(F)(F)F)[C@H](O)[C@H](C)O2)C1)C(=O)c1ccccc1C3=O (stereo not given in full) | – | 105 | –
5 | CC(=O)[C@]1(O)Cc2c(O)c3c(c(O)c2[C@@H](OC2CC(N)C(O)C(C)O2)C1)C(=O)c1ccccc1C3=O (stereo not given in full) | – | – | T/C [3]: 160

— ChEMBL document CHEMBL1123315, “Total chemical synthesis and antitumor evaluation of the 9-aza analogue of N-(trifluoroacetyl)-4-demethoxydaunomycin” (1986)
